Drawing on patent publication US7655671B2, “Morphinan derivatives, the quaternary ammonium salts thereof substituted in position 14, method for production and use thereof” (priority 2002, dated 2010), this text covers melting point for 37 compounds.

Structures can show the parent of a compound that is named as a salt. A value given as a limit tells only on which side of the number the result lay.

For `COc1ccc2c(c1OC)[C@]13CCN(C)C(C2)[C@]1(O)CCC(=O)[C@H]3C`, the melting point fell in the range of 122 to 124 °C.
In the case of `CC[N@@+]1(C)CC[C@]23c4c5ccc(O)c4O[C@H]2C(=O)CC[C@@]3(OCCCc2ccccc2)[C@H]1C5.[I-]` it was 171 to 176 °C; in that of `CCO[C@@]12CCC(=O)[C@@H](C)[C@@]13CCN(C)[C@@H]2Cc1ccc(OC)c(O)c13`, 122 to 129 °C.
In the case of `O=C1CC[C@@]2(OCc3ccccc3)[C@H]3Cc4ccc(O)c5c4[C@@]2(CCN3CC2CC2)[C@H]1O5` (as salt: hydrobromid) it was > 210 °C (dec.); in that of `C=CC[N@+]1(C)CC[C@]23c4c5ccc(O)c4OC2(Cc2ccccc2)C(=O)CCC3(OCCCC)C1C5.[I-]` (stereo partly shown), 200 to 205 °C; in that of `COc1ccc2c(c1O)[C@]13CCN(C)[C@H](C2)[C@]1(OCCCc1ccccc1)CCC(=O)C3`, > 258 °C (dec.).
In the case of `CCN1CC[C@]23c4c5ccc(OC)c4O[C@H]2C(=O)CC[C@@]3(OCCCc2ccccc2)[C@H]1C5` it was 95 to 101 °C; in that of `COc1ccc2c(c1OC)[C@]13CCN(C)[C@H](C2)[C@]1(OCc1ccccc1)CCC(=O)[C@H]3C`, 166 to 167 °C; in that of `COc1ccc2c3c1O[C@@]1(Cc4ccccc4)C(=O)C=C[C@@]4(OC)[C@@H](C2)N(C)CC[C@]314` (stereo in doubt) (as salt: hydrochloride), 164 to 166 °C.
As to `COc1ccc2c3c1O[C@H]1C(=O)CC[C@@]4(OCCCc5ccccc5)[C@@H](C2)N(CC2CCC2)CC[C@]314` (as salt: hydrochloride), the melting point was in the range of 128 to 133 °C.
In the case of `CCO[C@@]12CCC(=O)[C@@H](C)[C@@]13CCN(C)C2Cc1ccc(OC)c(OC)c13` it was 135 to 141 °C; in that of `CCCCOC12CCC(=O)C3(Cc4ccccc4)Oc4c(O)ccc5c4[C@@]31CC[N+](C)(C)C2C5.[I-]` (stereo partly shown), 188 to 195 °C.
In the case of `COc1ccc2c3c1O[C@H]1C(=O)CC[C@@]4(OCCCc5ccccc5)[C@@H](C2)N(CCc2ccccc2)CC[C@]314` (as salt: hydrochloride) [Compound 4, 4,5α-epoxy-3-methoxy-17-(2-phenylethyl)-14β-(3-phenylpropyloxy)morphinan-6-one hydrochloride] it was 128 to 130 °C; in that of `CCCCO[C@@]12CCC(=O)[C@@H]3Oc4c(O)ccc5c4[C@@]31CC[N+](C)(C)[C@@H]2C5.[I-]`, 180 to 185 °C.
On to `Cc1ccccc1CO[C@@]12CCC(=O)[C@@H]3Oc4c(O)ccc5c4[C@@]31CCN(CC1CC1)[C@@H]2C5` (as salt: hydrochloride), for which the melting point was 198 to 200 °C.
In the case of `CCCN1CC[C@]23c4c5ccc(O)c4O[C@H]2C(=O)CC[C@@]3(OCCC(C)C)[C@H]1C5` (as salt: hydrochloride) it was 175 to 185 °C (dec.); in that of `CCCCOc1cccc2c1[C@]13CC[N@@H+](CC4CC4)C(C2)[C@]1(OCCCc1ccccc1)CCC(=O)C3.[Cl-]` (stereo in doubt), 172 to 177 °C; in that of `COc1ccc2c(c1OC)[C@]13CCN(C)C(C2)[C@]1(OCCCc1ccccc1)CCC(=O)C3`, 110 to 115 °C.
Next, `O=C1CC[C@@]2(OCCCc3ccccc3)C3Cc4ccc(O)c5c4[C@@]2(CCN3CC2CCCO2)[C@H]1O5` (stereo partly drawn) (as salt: hydrochloride) [Compound 10, 4,5α-epoxy-17-[2-((R,S)-tetrahydrofuran-2-yl)methyl]-3-hydroxy-14β-(3-phenylpropyloxy)morphinan-6-one hydrochloride]: 170 to 172 °C.
In the case of `C[N@+]1(CC2CC2)CC[C@]23c4c5ccc(O)c4O[C@H]2C(=O)CC[C@@]3(OCc2ccccc2-c2ccccc2)[C@H]1C5.[I-]` it was 219 to 221 °C; in that of `C=CCN1CC[C@]23c4c5ccc(OC)c4O[C@H]2C(=O)CC[C@@]3(OCCCc2ccccc2)C1C5`, 129 to 130 °C.
Consider `C[N@+]1(CC2CC2)CC[C@]23c4c5ccc(O)c4O[C@H]2C(=O)CC[C@@]3(OCc2ccc(Cl)cc2)[C@H]1C5.[I-]`, for which the melting point was in the range of 214 to 219 °C.
`COc1ccc2c(c1O)[C@]13CCN(C)[C@H](C2)[C@]1(OCc1ccc2ccccc2c1)CCC(=O)C3` (as salt: hydrochloride) yielded a melting point of 195 to 197 °C.
With `COC12CCC(=O)C3Oc4c(O)ccc5c4[C@@]31CC[N@+](C)(CCc1ccccc1)C2C5.[I-]` (stereo partly shown), the melting point lay within 180 to 181 °C.
`COc1ccc2c3c1O[C@H]1C(=O)CC[C@@]4(OCCCc5ccccc5)C(C2)N(CC2CCCO2)CC[C@]314` (stereo partly shown) (as salt: hydrochloride): the melting point lay in the range of 121 to 123 °C.
Next, `O=C1CC[C@@]2(OCCCc3ccccc3)[C@H]3Cc4ccc(O)c5c4[C@@]2(CCN3CCc2ccccc2)[C@H]1O5` (as salt: hydrochloride) [Compound 9, 4,5α-epoxy-3-hydroxy-17-(2-phenylethyl)-14β-(3-phenylpropyloxy)morphinan-6-one hydrochloride]: > 218 °C (dec.).
Next, `CC(C)CCO[C@@]12CCC(=O)[C@@H]3Oc4c(O)ccc5c4[C@@]31CCN(CC1CC1)[C@@H]2C5` (as salt: hydrochloride): 168 to 170 °C; `COc1ccc2c3c1O[C@H]1C(=O)CC[C@@]4(OCCCc5ccccc5)[C@@H](C2)N(CC2CC2)CC[C@]314` (as salt: hydrochloride): 130 to 133 °C; `COc1ccc2c(c1OC)[C@]13CCN(C)[C@H](C2)[C@]1(OCc1ccc2ccccc2c1)CCC(=O)C3` (as salt: hydrochloride): 165 to 170 °C.
The compound `CCN1CC[C@]23c4c5ccc(O)c4O[C@H]2C(=O)CC[C@@]3(OCCCc2ccccc2)[C@H]1C5` (as salt: hydrochloride) had a melting point of 178 to 180 °C.
As for `CC#COc1ccc2c3c1O[C@H]1C(=O)CC[C@@]4(OCc5cccc(Cl)c5)C(C2)N(C)CC[C@]314` (as salt: hydrochloride), the melting point fell in the range of 145 to 150 °C.
In the case of `COc1ccc2c(c1O)[C@]13CCN(C)[C@H](C2)[C@]1(OCCCc1ccccc1)CCC(=O)[C@H]3C` (as salt: hydrochloride) it was > 210 °C (dec.).
Next, `COc1ccc2c(c1OC)[C@]13CCN(C)[C@H](C2)[C@]1(OCc1ccccc1)CCC(=O)C3` (as salt: hydrochloride): 140 to 145 °C; `CCCCO[C@@]12CCC(=O)[C@@H]3Oc4c(O)ccc5c4[C@@]31CCN(CC1CC1)[C@@H]2C5` (as salt: hydrochloride): 240 °C (dec.).
Compound `O=C1CC[C@@]2(OCc3ccccc3Cl)[C@H]3Cc4ccc(O)c5c4[C@@]2(CCN3CC2CC2)[C@H]1O5` (as salt: hydrochloride) returned a melting point of 165 to 168 °C.
Next, `O=C1CC[C@@]2(OCCCc3ccccc3)[C@H]3Cc4ccc(O)c5c4[C@@]2(CCN3CC2CCC2)[C@H]1O5` (as salt: hydrochloride) [Compound 7, 17-cyclobutylmethyl-4,5α-epoxy-3-hydroxy-14β-(3-phenylpropyloxy)morphinan-6-one hydrochloride]: > 227 °C (dec.).
Next, `COc1ccc2c(c1O)[C@]13CCN(C)[C@H](C2)[C@]1(O)CCC(=O)[C@H]3C` (stereo in doubt): > 185 °C (dec.).
